{"source": "paper PMC9001643", "about": "“Conservation of the unusual dimeric JmjC fold of JMJD7 from Drosophila melanogaster to humans” (Scientific Reports, 2022)", "data": [{"biological_target": "T1, dmJMJD7 (Drosophila melanogaster, UniProt Q9VU77)", "T1 construct": "gene JMJD7; full-length dmJMJD7, aa 1–316, N-terminally His6-tagged", "T1 sequence (Q9VU77 whole entry, the tested form may be a part)": "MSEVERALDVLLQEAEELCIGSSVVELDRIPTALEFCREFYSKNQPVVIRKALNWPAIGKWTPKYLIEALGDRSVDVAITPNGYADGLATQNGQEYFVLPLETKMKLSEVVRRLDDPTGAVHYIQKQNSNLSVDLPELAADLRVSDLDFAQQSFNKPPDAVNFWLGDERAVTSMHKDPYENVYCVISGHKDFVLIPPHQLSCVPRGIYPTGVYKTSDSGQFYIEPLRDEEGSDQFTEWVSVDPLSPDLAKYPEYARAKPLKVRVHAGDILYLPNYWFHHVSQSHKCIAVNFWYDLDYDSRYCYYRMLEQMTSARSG", "experiment": "crystal structure", "format": "binding", "values": [{"compound": "O=C(O)C(=O)N[C@H](Cc1ccccc1)C(=O)O", "note": "[NOFD, N-oxalyl-D-phenylalanine]", "crystal structure": "dmJMJD7.N-oxalyl-D-phenylalanine (PDB: 7YXL)"}, {"compound": "O=C(O)CCC(=O)C(=O)O", "note": "[2OG, 2-oxoglutarate]", "crystal structure": "crystals of His6-dmJMJD7.Mn complexed with its co-substrate 2OG or co-product succinate"}, {"compound": "O=C(O)CCC(=O)O", "note": "[succinate]", "crystal structure": "dmJMJD7.succinate (PDB: 7YXH)"}]}, {"biological_target": "T1, dmJMJD7", "experiment": "crystal structure; SPE-MS inhibition assay with DRG1 peptide", "format": "biochemical", "units": {"IC50": "nM"}, "values": [{"compound": "O=C(O)c1ccnc(C(=O)O)c1", "note": "[2,4-PDCA, pyridine-2,4-dicarboxylate]", "IC50": 1340}, {"compound": "O=C(O)CNC(=O)C(=O)O", "note": "[NOG, N-oxalylglycine]", "IC50": 300}, {"compound": "C[C@@H](NC(=O)C(=O)O)C(=O)O", "note": "[NODA, N-oxalyl-D-alanine]", "IC50": 4140}]}]}
